{"source": "ChEMBL document CHEMBL1649575", "about": "“Antimicrobial susceptibility and mutations involved in clarithromycin resistance in Helicobacter pylori isolates from patients in the western central region of Colombia” (2009)", "key": {"[1]": {"tested_on": "Helicobacter pylori", "experiment": "Antimicrobial activity against Helicobacter pylori clinical isolate by Etest", "type": "functional, organism-based"}, "[2]": {"tested_on": "Helicobacter pylori", "experiment": "Antimicrobial activity against Helicobacter pylori clinical isolate expressing 23S rRNA A2142G mutant by Etest", "type": "functional"}, "[3]": {"tested_on": "Helicobacter pylori", "experiment": "Antimicrobial activity against Helicobacter pylori clinical isolate expressing 23S rRNA A2143G mutant by Etest", "type": "functional, organism-based"}}, "note": "The source made the active and inactive calls. No cut-off for these calls is given here.", "data": [{"smiles": "CN(C)[C@@H]1C(O)=C(C(N)=O)C(=O)[C@@]2(O)C(O)=C3C(=O)c4c(O)cccc4[C@@](C)(O)[C@H]3C[C@@H]12", "values": [{"measurement": "Activity", "setting": "[1]", "value": "Active"}]}, {"smiles": "CC[C@H]1OC(=O)[C@H](C)[C@@H](O[C@H]2C[C@@](C)(OC)[C@@H](O)[C@H](C)O2)[C@H](C)[C@@H](O[C@@H]2O[C@H](C)C[C@H](N(C)C)[C@H]2O)[C@](C)(OC)C[C@@H](C)C(=O)[C@H](C)[C@@H](O)[C@]1(C)O", "note": "[CLARITHROMYCIN]", "values": [{"measurement": "MIC", "setting": "[2]", "value": "> 256", "unit": "µg/mL"}, {"measurement": "Activity", "setting": "[3]", "value": "inactive"}]}]}
